Experimental data: patent US20260355189A1, “SMALL MOLECULE INHIBITORS OF NEUTROPHIL EXOCYTOSIS AND INFLAMMATION” (THE SCRIPPS RESEARCH INSTITUTE, priority 2022, published 2026)

What was measured:
LPS-challenged mice = test: LPS-induced systemic inflammation (endotoxemia/sepsis), plasma cytokines; assay type: in vivo, mouse; settings: for IL-10 levels: FIG. 10B
Method: FIG. 10A-B. Treatment with compound NEIa-C6 inhibits pro-inflammatory cytokine production in a model of sepsis. We tested the ability of C6 to protect mice from LPS-induced systemic inflammation. In these experiments, mice (n=4 independent mice per group) receive NEIa-C6 (30 mg/Kg) or vehicle by a single i.p. injection and two hours later, the animals are challenged with a single i.p. injection of lipopolysaccharide (LPS, 8 mg/Kg) or PBS (vehicle for LPS). Four hours after LPS/PBS insult, blood is collected and cytokines are analyzed in plasma using multiplex technology.
To test whether Nexinhibs, and in particular NEIa-C6, have additional protective properties in inflammation models relevant to human disease, independent of inflammasome activation, we tested the ability of C6 to protect mice from LPS-induced systemic inflammation. In these experiments, mice received NEIa-C6 (30 mg/Kg) or vehicle by a single i.p. injection and two hours later, the animals are challenged with a single i.p. injection of lipopolysaccharide (LPS, 8 mg/Kg), an important outer membrane component of gram-negative bacteria. In this model, endotoxemia insult induces the production of pro-inflammatory cytokines. To test the possible anti-inflammatory effect of NEIa-C6, we comparatively analyzed cytokine levels in plasma of LPS-insulted and control mice using multiplex technology.

wild-type neutrophils = test: Secretion by wild-type neutrophils; assay type: cell-based
[1] = tested on: neutrophils that carry the NLRP3 A350V mutation; test: Secretion by bone-marrow-derived neutrophils from Nlrp3 A350V (CAPS) mice; assay type: cell-based, mouse; settings: 10 μM, 1 hour, LPS and fMLF
Source text: FIG. 8A-C. […] A, gelatinase (MMP9) granules; B, azurophilic granules (MPO, myeloperoxidase); C, CD63 (an endolysosomal marker). […] Subsequently, neutrophils were either stimulated with lipopolisacharide (LPS) and the chemotatctic peptide fMLF or left untreated. C20 (Nexinhib20 is used as control). Mean±SEM, n=3. In this and subsequent figures, p<0.05; **, p<0.01; ***, p<0.001; ****, p<0.0001, ANOVA.
These compounds are now tested using neutrophils from a mouse model of Cryopyrin-Associated Periodic Syndrome (CAPS), a systemic inflammatory disease in humans, caused by gain-of-function mutations of the NOD-like receptor family member, cryopirin, also known as NLRP3 (J Cin Immunol 39, 277-286, doi:10.1007/s10875-019-00638-z (2019)). Heterozygous NLRP3 mutations lead to hyper-responsive NLRP3 inflammasome function characterized by increased caspase-1 (Casp1) activation and […], and is observed in patients and in animal models with NLRP3-gain-of-function mutations. […] Subsequently, neutrophils were either stimulated with LPS and the chemotatctic peptide fMLF or left untreated.

[2] = tested on: Nlrp3^A350V cre ERT2 mice; test: Nlrp3 A350V cre ERT2 mouse model of cryopyrin-associated periodic syndrome (CAPS); assay type: in vivo; settings: 30 mg/Kg i.p.; for Number of leukocytes and leukocyte subtypes: 7 or 13 days, FIG. 9B; for Activation of circulating neutrophils (CD63 upregulation): FIG. 9D; for Neutrophilic infiltration into the kidney (total MMP9 and MPO levels): tissues day 13, FIG. 9F
Method: […] cre ERT2 and control mice were injected i.p. with 50 mg/kg tamoxifen followed by C6 (30 mg/Kg) or vehicle as described. B) Total leukocytes numbers and subtypes were not affected. C) Animals suffer weight loss with disease progression. D) The activation of circulating neutrophils is attenuated by C6. E, The percentage of immature (pro-inflammatory, Ly6G-) neutrophils in circulation (blood) in Nlrp3^A350V is attenuated by treatment with C6 (4.29%) as compared to vehicle (11.0%). […] F, The protection was specific for kidneys.
In this model, disease is caused by the Nlrp3^A350V mutations. The Nlrp3^A350V inducible mouse model (MWS CreT) is homologous to humans suffering from CAPS with the Muckle-Wells A352V mutation in the NLRP3 gene. The tamoxifen inducible Nrp3^A350V cre ERT2 and control animals were injected (i.p.) with 50 mg/kg tamoxifen free base to induce disease (J Immunol 189, 2707-2711, doi:10.4049/jimmunol.1101737 (2012)). The mice (6-12 weeks old) had access to food and water ad libitum. All animal studies were performed in compliance with the U.S. Department of Health and Human Services Guide for the Care and Use of Laboratory Animals and according to NIH and institutional guidelines. All animal protocols and procedures were approved by the University of California San Diego Institutional Animal Care and Use Committees (IACUC). Mice were treated with the neutrophil specific inhibitor NEIa-C6 or vehicle (5% DMSO in PBS). In this model, NLRP3^A350V disease develops progressively in 15 days after first induction with tamoxifen. Between day 0 and day 5 mice were injected (i.p) every other day with tamoxifen followed by NEIa-C6 (30 mg/Kg) or vehicle. Next, administration of NEIa-C6 or vehicle continued until day 13, in the absence of tamoxifen. Blood samples were obtained at day 7 and blood and tissues harvested at day 13. […] The effect was specific for kidneys as lung and liver infiltration was unaffected (FIG. 9G).

[3] = 30 mg/Kg i.p., LPS 8 mg/Kg, plasma, FIG. 10A

- Number of leukocytes and leukocyte subtypes ([2]; listed as C6): not affected
SMILES: CCN(CC)CCNC(=O)/C(=C/c1cccc([N+](=O)[O-])c1)n1cncn1 [154 (C6)]
- Production of pro-inflammatory cytokines (LPS-challenged mice; 30 mg/Kg i.p. 2 h before LPS 8 mg/Kg, plasma 4 h after LPS, FIG. 10A): inhibit the production of the indicated pro-inflammatory cytokines
- GM-CSF production (LPS-challenged mice; [3]): significantly decreases
- IL-1β production (LPS-challenged mice; [3]): significantly decreases
- IL-17 levels (LPS-challenged mice; [3]): decreased
- MIP-2 levels (LPS-challenged mice; [3]): decreased
- TL-3 levels (LPS-challenged mice; [3]): decreases
- IL-10 levels (LPS-challenged mice; 30 mg/Kg i.p., LPS 8 mg/Kg, plasma, listed as C6): increases the production of IL-10
- IL-10 levels (LPS-challenged mice; 30 mg/Kg i.p., LPS 8 mg/Kg, plasma, listed as NEIa-C6): increased the levels of IL-10
- Inhibitory effect on wild-type neutrophils (wild-type neutrophils): selective inhibitory effect on wild-type neutrophils
- Mobilization of azurophilic granules (MPO) ([1]; FIG. 8): inhibit the mobilization
- Mobilization of gelatinase granules (MMP9) ([1]; FIG. 8): inhibit the mobilization of gelatinase granules (MMP9)
- Neutrophil secretion (hyperactivation of secretion) ([1]; Nlrp3 A350V and wild type, FIG. 8A-C): inhibit the hyperactivation of secretion
- Mobilization of CD63 ([1]; murine neutrophils, FIG. 8): significantly inhibited the mobilization of CD63
- Number of leukocytes and leukocyte subtypes ([2]; listed as NEIa-C6): did not affect the number of any leukocyte subtype
- Neutrophil mediated inflammation in vivo ([2]; FIG. 9): inhibits neutrophil mediated inflammation in vivo
- Activation of circulating neutrophils (CD63 upregulation) ([2]; listed as C6): attenuated
- Activation of circulating neutrophils (CD63 upregulation) ([2]; listed as NEIa-C6): decreased neutrophil activation in vivo
- Lung and liver neutrophilic infiltration ([2]; FIG. 9G): unaffected
- Neutrophilic infiltration into the kidney (total MMP9 and MPO levels) ([2]; listed as C6): significantly decreased
- Neutrophilic infiltration into the kidney (total MMP9 and MPO levels) ([2]; listed as NEIa-C6): significantly protected kidneys from neutrophilic infiltration
- Percentage of immature (pro-inflammatory, Ly6G-) neutrophils in blood ([2]; vehicle 11.0%, FIG. 9E): 4.29%
- Weight loss ([2]; vs vehicle, FIG. 9C): partially protected from weight loss
- Number of pro-inflammatory immature neutrophils in blood ([2]; vs vehicle, FIG. 9E): decreased the number of pro-inflammatory immature neutrophils in blood
